Results taken from patent US20150056272A1, “Synergistic Antimicrobial Preparations Containing Chlorite and Hydrogen Peroxide” (S.K. Pharmaceuticals, Inc., priority 1998, published 2015).

Test system: candida albicans
Assay: Candida albicans challenge (log reduction)
Assay type: cell-based
Settings: components applied separately at the same concentrations (400 ppm chlorite; 100 ppm hydrogen peroxide)

In the case of `OO` [hydrogen peroxide], the “effect on candida albicans activity” value was “ineffective”.
With chlorite the “effect on candida albicans activity” value was “ineffective”.
